Test results from ChEMBL document CHEMBL1157539, “Thousands of chemical starting points for antimalarial lead identification” (Nature, 2010).

System: Plasmodium falciparum
Test: GSK_TCMDC: Inhibition of Plasmodium falciparum 3D7 in whole erythrocytes, using parasite LDH activity as an index of growth.
Format: functional, organism-based
Conditions: Plasmodium falciparum, 3D7

Row | Structure (SMILES) | XC50
1 | CCN(CC)CCN(Cc1ccc(-c2ccc(C(F)(F)F)cc2)cc1)C(=O)Cn1c(CCc2cccc(F)c2F)nc(=O)c2ccccc21 | 671 nM
2 | CCN1CCC(N(Cc2ccc(-c3ccc(C(F)(F)F)cc3)cc2)C(=O)Cn2c(SCc3cccc(F)c3F)cc(=O)c3ccccc32)C1 (stereo unspecified) | 882 nM
3 | COc1cc(Cc2cnc(N)nc2N)cc(OCCCCCCC(=O)O)c1OC | 937 nM
4 | Cc1[nH]c(C)c(C(F)(F)F)c(=O)c1-c1ccc(Oc2ccc(OC(F)(F)F)cc2)cc1 | 173 nM
5 | CC1(C)NC(N)=NC(=N)N1OCCCCCOc1ccccc1 | 3.2 nM
6 | COc1cccc(CC(=O)N2CCC(n3c(C)nc4ccc(F)cc43)CC2)c1 | 906 nM
7 | COc1ccc(C(=O)N2CCc3cc4nccc(N5CCN6CCC[C@H]6C5)c4cc32)cc1 | 948 nM
8 | CCC(O)(C#Cc1c(C)nc(N)nc1N)CC | 639 nM
9 | COc1cc(CCOc2c(C)nc(N)nc2N)cc(OC)c1OC | 23.8 nM
10 | Cc1cccc(Oc2cccc3[nH]nc(N)c23)c1 | 1040 nM
11 | CCN1CCN(c2cc(C)c3cc(NC(=O)c4cccc(OC)c4)ccc3n2)CC1 | 799 nM
12 | Cc1ccc(O)cc1Nc1ccnc2cc(-c3nccs3)ccc12 | 879 nM
13 | CCc1ccc(CC(C)NCC(O)c2ccccc2)cc1 (stereo unspecified) | 887 nM
14 | COc1ccc(S(=O)(=O)N2CCCC(C)C2)cc1N1CCN(C(=O)c2ccc([N+](=O)[O-])o2)CC1 (stereo unspecified) | 1250 nM
15 | COc1cc(Nc2nccc(NCC(O)c3ccc(C(F)(F)F)cc3)n2)cc(OC)c1OC (stereo unspecified) | 920 nM
16 | COc1ccc2nccc([C@@H](O)CN3CCC(NCc4cc5ccccc5cn4)CC3)c2n1 | 918 nM
17 | O=C(Nc1cccc(C(F)(F)F)c1)c1ccc(S(=O)(=O)NC2CCN(CC3CCCCC3)C2)cc1 (stereo unspecified) | 789 nM
18 | CN(C(=O)Nc1ccc(C(F)(F)F)cc1)C1CCN(CCCCCNC(=O)/C=C/c2ccc(Cl)c(Cl)c2)CC1 | 330 nM
19 | Cc1ccc(NC(=O)c2ccc(C(=O)NC3CCN(CC4CCCCC4)CC3)cc2)cc1 | 903 nM
20 | Cc1cc(N(C)C2CCN(CC3CCCCC3)C2)nc(Nc2ccc(Br)cc2)n1 (stereo unspecified) | 703 nM
21 | COc1ccc(NC(=O)N2CCN(CCCCCNC(=O)/C=C/c3ccc(C(F)(F)F)cc3)CC2)cc1Cl | 859 nM
22 | N#Cc1ccc(N[C@@H](CC2CCCCC2)C(=O)NCc2cc(Cl)cc(Cl)c2)c2ccccc12 | 1100 nM
23 | COC(=O)c1cccc(CNCc2ccc(-c3cccc(-c4nc5ccccc5[nH]4)c3)cc2)c1 | 261 nM
24 | Cc1ccc(C(=O)Cn2nc(-c3ccc(C)c(S(=O)(=O)N4CCCCC4)c3)ccc2=O)cc1 | 333 nM

Row | Structure (SMILES) | XC50
25 | Cc1cccc(-c2cc3cc(Nc4ccnc5cc(-c6nccs6)ccc45)ccc3[nH]2)c1 | 174 nM
26 | CC(=O)Nc1ccc(CNC2Cc3ccc(-c4ccc(Cl)c(Cl)c4)cc3C2)cc1 (stereo unspecified) | 998 nM
27 | Cc1cccc2nc(-c3ccc(-c4ccc(CNCc5ccccc5)cc4)cc3)[nH]c12 | 508 nM
28 | COc1ccc(Nc2ncc3c(-c4cccc(NC(=O)c5ccc(N)cc5)c4)c[nH]c3n2)cc1OC | 975 nM
29 | NC(=O)COc1c(C2CCN(CCCCNC(=O)c3ccc(-c4ccc(Cl)cc4)c(O)c3)CC2)ccc2c1CCCC2 | 706 nM
30 | CCCCCCCCCN(CCC)C(=O)[C@@H]1OC(C(=O)OC(c2ccccc2)c2ccccc2)=C[C@H](NC(=O)OC(C)(C)C)[C@H]1NC(C)=O | 640 nM
31 | CCc1ccc(OCc2ccccc2C(=O)Nc2ccc3nc(C)cc(N)c3c2)cc1 | 203 nM
32 | Cc1cc(Nc2nc(NCc3cccnc3)nc3ccccc23)n[nH]1 | 852 nM
33 | Cn1c(Nc2nnc(C3CC3)s2)nc2cc(Nc3ccnc(Nc4cccc(CS(C)(=O)=O)c4)n3)ccc21 | 681 nM
34 | CCOC(=O)c1nc(-c2cc(Cl)nc(Cl)c2)[nH]c1NC(=S)NCCCN1CCOCC1 | 925 nM
35 | O=C(Nc1ccc(Cl)cc1)c1ccc(CN2CCCN(Cc3cccc(F)c3)CC2)cc1 | 1030 nM
36 | COc1ccc(C=Cc2cc(=N)c3ccccc3[nH]2)cc1Br | 713 nM
37 | CCn1cc(-c2nc(-c3cc(OC)cc(OC)c3)no2)c(=O)c2ccccc21 | 338 nM
38 | O=C(NCc1ccc(Cl)c(Cl)c1)c1ccc(-c2nc3ccc(Cl)cc3[nH]2)cc1 | 905 nM
39 | COc1ccc(-c2ccc(NC(=O)c3cccc(Cl)c3)cc2)cc1CNC(C)C | 466 nM
40 | COc1ccc2nc(-c3cccc(C)n3)nc(Nc3ccncc3)c2c1 | 669 nM
41 | O=C(NCCCN1CCOCC1)c1ccc(-c2cccc(NC(=O)c3ccc(Cl)c(Cl)c3)c2)cc1 | 683 nM
42 | Cc1nc(-c2ccc(C#N)cc2)sc1C(=O)NCCCCN1CCC(c2ccc3c(c2OCCO)CCCC3)CC1 | 850 nM
43 | Nc1ccc(-c2nc3c(ccc4ccccc43)[nH]2)cc1 | 941 nM
44 | N#Cc1ccc2c(c1)CCN(CCC1CCC(NC(=O)/C=C/c3cccc4ccccc34)CC1)CC2 (stereo unspecified) | 729 nM
45 | CC(C)Cn1cc(C2CCN(CCN3CCC(CNC(=O)c4ccc(NC(=O)c5cc(Cl)cc(Cl)c5)cc4)CC3)CC2)c2ccccc21 | 693 nM
46 | Cn1nc(-c2cccc(CNCCc3cccs3)c2)c2cnc(NC3CCCC3)nc21 | 1890 nM
47 | CCCC1N=C(N)N=C(N)N1c1ccc(OC)cc1 (stereo unspecified) | 234 nM
48 | O=C(Nc1ccc(-c2ccccc2)cc1)Nc1cccc(Cn2nc(Cl)c(N3CCNCC3)cc2=O)c1 | 369 nM

Row | Structure (SMILES) | XC50
49 | CCn1cc(C=C2Oc3c(ccc(O)c3CN3CCCCC3)C2=O)c2cc(OC)ccc21 | 521 nM
50 | CCCCCOc1ccc(C(O)C(CN2CCCCC2)c2ccccc2)cc1 (stereo unspecified) | 877 nM
51 | COC(=O)c1ccc(CN2CCC(N(Cc3cccc(Oc4ccccc4)c3)S(=O)(=O)c3ccc(NC(C)=O)cc3)CC2)cc1 | 1050 nM
52 | Cn1nc(-c2ccc(NC(=O)Nc3cc(C(F)(F)F)ccc3F)cc2)c2cnc(NCCc3c[nH]cn3)nc21 | 813 nM
53 | CCC1(C)CC(CCNCc2ccccc2O)(c2ccc(C)cc2)CCO1 (stereo unspecified) | 38.8 nM
54 | O=C(Nc1cccc(-c2ccc(-c3nc4cc(C(F)(F)F)ccc4[nH]3)cc2)c1)c1ccncc1 | 337 nM
55 | N#Cc1cccc(NC(=O)C2=C(CCc3ccc4c(c3)OCO4)NC(=O)NC2c2cccc(C#N)c2)c1 (stereo unspecified) | 834 nM
56 | CC(=O)Nc1ccc(CN2CCC(N(C)c3ccc(NC(=O)c4cccc(C)c4)cc3)CC2)cc1 | 986 nM
57 | COC(=O)C1=CNC=C(C(=O)OC)C1c1ccc(Cl)c([N+](=O)[O-])c1 | 676 nM
58 | Cc1nc(C)c(-c2ccc(-c3ccc(F)cc3)cc2)c(O)c1Cl | 655 nM
59 | CCOC(=O)c1ccc(N(CCCN(CCCN(c2ccc(C(=O)OCC)cc2)S(=O)(=O)c2ccc(C)cc2)CCc2ccc(O)cc2)S(=O)(=O)c2ccc(C)cc2)cc1 | 1050 nM
60 | Nc1c(Cl)cc(C(O)CNCCCCCCOCCC=C2CCOCC2)cc1Cl (stereo unspecified) | 634 nM
61 | CS(=O)(=O)c1cccc(-c2ccc3oc(C(N)=O)c(NC(=O)c4cccs4)c3c2)c1 | 589 nM
62 | CCNc1cc(C)nc(Nc2ccc(F)cc2)n1 | 798 nM
63 | COc1ccc2nc(Nc3nc4cnccc4[nH]3)sc2c1 | 1130 nM
64 | CC(=O)Nc1nc(C(=O)Nc2cccc(-c3ccc4c(cnn4CC4CC4)c3)c2)cs1 | 735 nM
65 | COc1cccc(C(=O)C2CC2CN2CC=C(c3c(C)[nH]c4ccccc34)CC2)c1 (stereo unspecified) | 710 nM
66 | Cc1cccc(CNc2nc(C)cc(N[C@@H](CC(C)C)C(=O)NCCOc3ccccc3)n2)c1 | 1080 nM
67 | O=C(NCc1cc2c(cc1Cl)OCO2)c1ccc(CNC2CCN(Cc3ccccc3)CC2)cc1 | 831 nM
68 | NCC1CCCN1Cc1ccc(-c2cccc(-c3nc4cc(F)ccc4[nH]3)c2)cc1 (stereo unspecified) | 751 nM
69 | N#Cc1ccc2c(c1)CCN(CCC1CCC(NC(=O)c3ccc(-c4ccccc4)s3)CC1)CC2 (stereo unspecified) | 684 nM
70 | Cc1nc(N2CCC(C)CC2)c2c3c(sc2n1)CCCC3 | 1060 nM
71 | COc1cc(O)c2c(=O)c(OC)c(-c3cccc(Cl)c3OCC(=O)O)oc2c1OC | 586 nM
72 | O=C(/C=C/c1ccccc1)N1CCOC(CCN2CCC(c3ccccc3)CC2)(c2ccc(Cl)c(Cl)c2)C1 (stereo unspecified) | 516 nM

Row | Structure (SMILES) | XC50
73 | COc1ccc(OC)c(NC(=O)C2c3ccccc3C(=O)N(CC(C)C)C2c2cccs2)c1 (stereo unspecified) | 805 nM
74 | CC(=O)c1ccc(N2C(=O)C3C(Cc4ccc(OC(C)(C)C)cc4)NC4(C(=O)N(Cc5ccc(C(C)(C)C)cc5)c5ccccc54)C3C2=O)cc1 (stereo unspecified) | 1280 nM
75 | CCNc1cc(C)nc(Nc2ccc(NC(=O)c3ccco3)cc2)n1 | 1090 nM
76 | C=CCc1cc(Cc2cnc(N)nc2N)c2ccc(C)nc2c1O | 1040 nM
77 | N#Cc1ccc(NC(=O)Nc2ccc(OC(F)(F)F)cc2)cc1 | 819 nM
78 | Nc1nc(N)c2nc(C3CC=CCC3)c(N)nc2n1 (stereo unspecified) | 162 nM
79 | O=C(NC1CCCCCC1)C1CCCN(C(=O)c2ccc(O)c(-c3ccc(Cl)c(Cl)c3)c2)C1 (stereo unspecified) | 763 nM
80 | COc1ccccc1CCNc1nc(C)cc(N[C@@H](Cc2ccccc2)C(=O)NCc2cccs2)n1 | 634 nM
81 | COc1ccc2c(NN=Cc3cccc(F)c3)ccnc2c1 | 207 nM
82 | O=C(NC1CCC(CN2CCC(c3c[nH]c4ccccc34)CC2)CC1)c1ccc(-c2cc(C(F)(F)F)ccc2Cl)o1 (stereo unspecified) | 714 nM
83 | CN1CCC[C@@H](Oc2cc3c(cc2Br)CCN3C(=O)Nc2ccc(-c3ccncc3)c(Cl)c2)C1 | 624 nM
84 | CC(O)CNc1nc2ccccc2n1CC(=O)Nc1cccc(C(=O)Nc2cccc(C(F)(F)F)c2)c1 (stereo unspecified) | 103 nM
85 | Cc1cccc(Cn2c(C(N)=O)nn(-c3ccc([N+](=O)[O-])cc3C#N)c2=S)c1 | 731 nM
86 | COC(=O)c1ccc(CC(C)NCC(O)c2cccc(Cl)c2Cl)cc1 (stereo unspecified) | 548 nM
87 | Cn1nc(-c2ccc(NC(=O)Nc3cc(C(F)(F)F)ccc3F)c(F)c2)c2cnc(NCCCN3CCOCC3)nc21 | 604 nM
88 | O=C1C(c2ccccc2)=C(Nc2cc(Cl)cc(Cl)c2)c2ccccc21 | 372 nM
89 | Cn1cnc(CCNC(=O)c2ccc(-c3ccc(-c4nc5cc(F)ccc5[nH]4)cc3)cc2)c1 | 866 nM
90 | O=C(/C=C/c1cccc(C(F)(F)F)c1)NCCCCCN1CCN(C(=O)Nc2ccc(Cl)c(Cl)c2)CC1 | 935 nM
91 | CNC(=O)c1ccccc1Nc1cc(Nc2cc(OC)ccn2)ncc1Cl | 930 nM
92 | COc1ccc2nccc([C@@H](O)CN3CCC(NCc4cc5c(F)ccc(F)c5[nH]4)CC3)c2n1 | 699 nM
93 | CC(C)Oc1cc(-c2ccc(S(C)(=O)=O)cc2)nc(N(Cc2cccc(F)c2F)Cc2cccc(F)c2F)n1 | 121 nM
94 | Clc1cc(Nc2ccnc3ccc(Br)cc23)ccc1Oc1ccc(Cl)c2ccccc12 | 634 nM
95 | O=C(/C=C/c1ccc(Cl)c(Cl)c1)NCCCCCN1CCC(CCNC(=O)/C=C/c2ccccc2F)CC1 | 871 nM
96 | Cc1nc(Nc2ccc(F)cc2)nc(N2CCc3cc(O)ccc3C2C)c1C (stereo unspecified) | 754 nM
